According to patent US12319655B2, “RAF kinase inhibitors and methods of use thereof” (Deciphera Pharmaceuticals, LLC, priority 2021, dated 2025):

How the values were obtained:
H2405 cells = assay: H2405 Cell Proliferation Assay (1); assay type: cell-based; details: Homo sapiens, NCI-H2405
Method: H2405 Cell Proliferation Assay (1)
(§1) H2405 cells (catalog #CRL-5994) are obtained from the American Type Culture Collect (ATTC, Manassas, VA). Briefly, cells were grown in RPMI 1640 supplemented with 5% characterized fetal bovine serum (Invitrogen, Carlsbad, CA) and 1% Penicillin/Streptomycin/L-Glutamine at 37° C., 5% CO2, and 95% humidity. Cells are expanded until reaching 70-95% confluency at which point they are sub-cultured or harvested for assay use. A serial dilution of test compound is dispensed into a 96-well black clear bottom plate in triplicate. Three thousand cells are added per well in 200 μL complete growth medium in the 96-well plate. Plates are incubated for 67-72 h at 37° C., 5% CO2, and 95% humidity. At the end of the incubation, 40 μL of a 440 μM solution of resazurin (Sigma, St. Louis, MO) in PBS is added to each well of the plate and plates are incubated for an additional 5-6 h at 37° C., 5% CO2, and 95% humidity. Plates are read on a Synergy2 or equivalent reader (Biotek, Winooski VT) using an excitation of 540 nm and an emission of 600 nm. Data is analyzed using Prism software (GraphPad, San Diego, CA) to calculate IC50 values.

[1] = target: B-Raf kinase (SEQ. ID NO: 2) (Homo sapiens (Human), UniProt P15056); assay: Biochemical Assay for B-Raf (1); details: Table J, assay version (1); read-out: BRAF (1) IC50
In short: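 Continuous PK/LDH-coupled NADH oxidation assay, A340 read for 6 h at 30° C., with 0.13 nM B-Raf, 30.1 nM MEK substrate and 1 mM ATP in Tris pH 7.5, MgCl2, DTT, detergents, 1% DMSO. Rate taken from 4–5 h window; percent inhibition vs no-compound and known-inhibitor controls; four-parameter fit gives IC50.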

[2] = target: C-Raf kinase (SEQ. ID NO: 3) (Homo sapiens (Human), UniProt P04049, Y340D/Y341D); assay: Biochemical Assay for C-Raf (1); details: Table J, assay version (1); read-out: CRAF (1) IC50
In short: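 Coupled pyruvate kinase/LDH assay tracking NADH oxidation at 340 nm, with 0.43 nM C-Raf, 30.1 nM MEK and 1 mM ATP in pH 7.5 Tris buffer (15 mM MgCl2, 1% DMSO final). Read continuously for 6 h at 30 °C, rate taken from the 4–5 h window. IC50 from four-parameter fit of percent inhibition.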

[3] = target: A-Raf kinase (SEQ. ID No: 1) (Homo sapiens (Human), UniProt P10398, Y301D/Y302D); assay: Biochemical Assay for A-Raf (1); details: Table J, assay version (1); read-out: ARAF (1) IC50
In short: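 A-Raf Y301D/Y302D at 5.55 nM phosphorylates 30.1 nM MEK with 1 mM ATP in pH 7.5 Tris buffer, 1% DMSO. Activity was read continuously as NADH oxidation at 340 nm in a pyruvate kinase/lactate dehydrogenase coupled system for 6 h at 30 °C. Rates from 4–5 h were converted to percent inhibition, and IC50 came from a four-parameter fit.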

A375 cells = assay: A375 Cell Proliferation Assay (1); assay type: cell-based; details: Homo sapiens, A-375
Method: A375 Cell Proliferation Assay (1)
as §1, with “A375 cells” for “H2405 cells”, “(catalog (#CRL-1619)” for “(catalog #CRL-5994)”, “in DMEM High Glucose” for “in RPMI 1640”, “with 10%” for “with 5%”, “triplicate. Two” for “triplicate. Three”, “thousand five hundred” for “thousand”

WM3928 cells = assay: WM3928 Cell Proliferation Assay (1); assay type: cell-based
Method: WM3928 Cell Proliferation Assay (1)
WM3928 cells (#WM3928-01-0001) are obtained from Rockland Immunochemicals Inc (Gilbertsville, PA). Briefly, cells were grown in MCDB 153 medium (Sigma, #M7403, St. Louis, MO) supplemented with 20% Leibovitz's L-15 (ThermoFisher #11415-064, Waltham, MA), 2% heat inactivated fetal bovine serum (ThermoFisher, #A3840001, Waltham, MA), 5 μg/mL Insulin (Bovine Pancreas) (Sigma, #I0516, St. Louis, MO), 1.68 mM Calcium Chloride (Sigma, #C-34006, St. Louis, MO) and 1% Penicillin/Streptomycin/L-Glutamine (ThermoFisher #10378016, Waltham, MA) at 37° C., 5% CO2, and 95% humidity. Cells are expanded until reaching 70-95% confluency at which point they are subcultured or harvested for assay use. A serial dilution of test compound is dispensed into a 96-well black clear bottom plate in triplicate. Three thousand cells are added per well in 200 μL complete growth medium in the 96-well plate. Plates are incubated for 67-72 hours at 37° C., 5% CO2, and 95% humidity. At the end of the incubation, 40 μL of a 440 μM solution of resazurin (Sigma, #199303, St. Louis, MO) in PBS is added to each well of the plate and plates are incubated for an additional 6-7 hours at 37° C., 5% CO2, and 95% humidity. Plates are read on a Synergy2 or equivalent reader (Biotek, Winooski VT) using an excitation of 540 nm and an emission of 600 nm. Data is analyzed using Prism software (GraphPad, San Diego, CA) to calculate IC50 values.

Miapaca-2 cells [4] = assay: MiaPaca-2 Cell Proliferation Assay (1); assay type: cell-based; details: Homo sapiens, MIA PaCa-2, single agent, read-out: MiaPaca2 (1) IC50
Method: MiaPaca-2 Cell Proliferation Assay (1)
as §1, with “Miapaca-2 cells” for “H2405 cells”, “(catalog #CRL-1420)” for “(catalog #CRL-5994)”, “in DMEM” for “in RPMI 1640”, “with 10%” for “with 5%”, “Carlsbad, CA), 2.5% New Zealand sourced horse serum” for “Carlsbad, CA)”

Miapaca-2 cells [5] = assay: MiaPaca-2 Combination Cell proliferation Assay (1) with cobimetinib; assay type: cell-based; details: MiaPaca-2 cell proliferation, read-out: MiaPaca-2 Combo (1) IC50
Method: MiaPaca-2 Combination Cell proliferation Assay (1)
Miapaca-2 cells (catalog #CRL-1420) are obtained from the American Type Culture Collect (ATCC, Manassas, VA). Briefly, cells were grown in DMEM supplemented with 10% characterized fetal bovine serum (Invitrogen, Carlsbad, CA), 2.5% New Zealand sourced horse serum and 1% Penicillin/Streptomycin/L-Glutamine at 37° C., 5% CO2, and 95% humidity. Cells are expanded until reaching 70-95% confluency at which point they are subcultured or harvested for assay use. A serial dilution of test compound was dispensed into multiple 96-well black clear bottom plates in triplicate. A serial dilution of complete growth medium containing cobimetinib was prepared at twice the final concentration and 100 μL was dispensed across the test compound titration in triplicate. Three thousand cells are added per well in 100 μL complete growth medium in each 96-well plate. Plates are incubated for 67-72 hours at 37° C., 5% CO2, and 95% humidity. At the end of the incubation, 40 μL of a 440 μM solution of resazurin (Sigma, St. Louis, MO) in PBS is added to each well of the plate and plates are incubated for an additional 5-7 hours at 37° C., 5% CO2, and 95% humidity. Plates are read on a Synergy2 or equivalent reader (Biotek, Winooski VT) using an excitation of 540 nm and an emission of 600 nm. Drug synergy was assessed via BLISS analysis in the Combenefit software (Cancer Research UK Cambridge Institute, Cambridge, UK). Data is analyzed using Prism software (Graphpad, San Diego, CA) to calculate IC50 values. Shifts in test compound IC50 values are reported from top-constrained combination therapy curves.

[6] = target: B-Raf (V600E) (SEQ. ID NO: 4) kinase (Homo sapiens (Human), UniProt P15056, V600E); assay: Biochemical Assay for B-Raf (V600E) (1); details: Table J, BRAF V600E, assay version (1); read-out: BRAF VE (1) IC50
In short: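 Coupled pyruvate kinase/lactate dehydrogenase assay: 0.03 nM B-Raf V600E, 30.1 nM MEK, 1 mM ATP, pH 7.5 Tris/MgCl2 buffer, 1% DMSO. NADH oxidation followed at 340 nm for 6 h at 30 °C; rate from 3–4 h converted to percent inhibition, IC50 by four-parameter fit.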

Sequence of A-Raf kinase (SEQ. ID No: 1) (P10398 other isoform, or with tags, fused parts or gaps Y301D (already in the parent)/Y302D (already in the parent)): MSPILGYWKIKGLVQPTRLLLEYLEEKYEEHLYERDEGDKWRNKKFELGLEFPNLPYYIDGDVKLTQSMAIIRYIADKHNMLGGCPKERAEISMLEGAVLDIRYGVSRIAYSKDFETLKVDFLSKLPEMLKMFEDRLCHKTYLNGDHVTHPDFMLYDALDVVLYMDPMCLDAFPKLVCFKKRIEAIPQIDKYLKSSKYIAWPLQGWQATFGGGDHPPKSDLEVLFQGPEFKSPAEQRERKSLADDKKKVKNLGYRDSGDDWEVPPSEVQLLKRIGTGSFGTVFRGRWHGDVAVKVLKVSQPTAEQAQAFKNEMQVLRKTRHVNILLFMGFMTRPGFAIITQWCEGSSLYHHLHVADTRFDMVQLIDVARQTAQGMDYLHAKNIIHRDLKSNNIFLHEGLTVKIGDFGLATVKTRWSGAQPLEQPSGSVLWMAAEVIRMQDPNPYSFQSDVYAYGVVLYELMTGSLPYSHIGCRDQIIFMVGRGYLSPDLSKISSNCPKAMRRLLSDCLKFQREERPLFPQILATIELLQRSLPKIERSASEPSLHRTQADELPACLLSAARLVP
Sequence of B-Raf kinase (SEQ. ID NO: 2) (P15056 416-766): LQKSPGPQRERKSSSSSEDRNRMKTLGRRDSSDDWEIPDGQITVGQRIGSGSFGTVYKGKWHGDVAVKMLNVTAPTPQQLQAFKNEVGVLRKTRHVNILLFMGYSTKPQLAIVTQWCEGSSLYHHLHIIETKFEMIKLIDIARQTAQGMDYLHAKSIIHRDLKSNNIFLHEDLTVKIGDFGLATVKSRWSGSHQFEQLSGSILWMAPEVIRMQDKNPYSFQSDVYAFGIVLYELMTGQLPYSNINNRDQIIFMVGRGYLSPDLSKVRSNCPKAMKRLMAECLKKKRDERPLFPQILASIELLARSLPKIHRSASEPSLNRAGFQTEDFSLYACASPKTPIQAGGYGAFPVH
Sequence of C-Raf kinase (SEQ. ID NO: 3) (P04049 307-648 Y340D/Y341D): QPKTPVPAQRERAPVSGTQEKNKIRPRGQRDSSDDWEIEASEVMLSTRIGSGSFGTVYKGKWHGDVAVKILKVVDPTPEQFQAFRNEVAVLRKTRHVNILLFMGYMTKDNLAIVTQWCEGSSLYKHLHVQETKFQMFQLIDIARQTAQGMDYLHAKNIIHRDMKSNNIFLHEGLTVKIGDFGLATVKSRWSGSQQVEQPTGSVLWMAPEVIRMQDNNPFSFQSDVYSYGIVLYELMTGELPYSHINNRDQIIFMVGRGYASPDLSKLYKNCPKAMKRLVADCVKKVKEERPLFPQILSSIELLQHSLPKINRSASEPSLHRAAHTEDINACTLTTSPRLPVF
Sequence of B-Raf (V600E) (SEQ. ID NO: 4) kinase (P15056 416-766 V600E): as the sequence (P15056 416-766) above, with V185E counted along it

IC50 (H2405 cells)	IC50 [1]	IC50 [2]	IC50 [3]	IC50 (A375 cells)	IC50 (Miapaca-2 cells [4])	IC50 (Miapaca-2 cells [5])	IC50 [6]	SMILES	IC50 (WM3928 cells)
1000 to 10000 nM	100 to 500 nM	100 to 500 nM	1000 to 10000 nM	1000 to 10000 nM				CNc1cc(-c2cccc(-c3cc(NC(=O)c4ccnc(C(C)(C)C#N)c4)cnc3C)c2)ncn1 [Example 227]	
			1000 to 10000 nM	500 to 1000 nM	1000 to 10000 nM			Cc1ccc(NC(=O)c2ccnc(C(C)(C)C#N)c2)cc1-c1ccnc(-c2ccncc2)c1 [Example 55]	
	500 to 1000 nM	500 to 1000 nM	1000 to 10000 nM			100 to 500 nM	≤ 100 nM	Cc1ccc(NC(=O)c2ccnc(C(C)(C)C#N)c2)cc1-c1cccc(-c2cc(NC(=O)C(C)(C)C)ncn2)c1 [Example 210]	

The next lines start with the compound.

SMILES	IC50 (H2405 cells)	IC50 [1]	IC50 [2]	IC50 [3]	IC50 (A375 cells)	IC50 (Miapaca-2 cells [4])	IC50 (Miapaca-2 cells [5])	IC50 [6]	IC50 (WM3928 cells)
COC(=O)Nc1cc(-c2cncc(-c3cc(NC(=O)c4ccnc(C(C)(F)F)c4)ccc3C)c2)ncn1 [Example 238]	100 to 500 nM				≤ 100 nM	1000 to 10000 nM	100 to 500 nM		≤ 100 nM
Cc1ccc(NC(=O)c2ccnc(C(F)(F)F)c2)cc1-c1cccc(-c2ccnc(NC(=O)C3CC3)c2)c1 [Example 58]	≤ 100 nM			1000 to 10000 nM	100 to 500 nM	1000 to 10000 nM			100 to 500 nM
Cc1ccc(NC(=O)c2cnnc(C3CC3)c2)cc1-c1nccc(-c2ccnc(NC(=O)C3CC3)c2)n1 [Example 272]	100 to 500 nM			1000 to 10000 nM	1000 to 10000 nM	1000 to 10000 nM			100 to 500 nM
Cc1ccc(NC(=O)c2cc(C3CC3)n(C)n2)cc1-c1ccnc(-c2ccnc(NC(=O)C3CC3)c2)n1 [Example 236]	100 to 500 nM				1000 to 10000 nM	1000 to 10000 nM			500 to 1000 nM
Cc1ccc(NC(=O)c2ccnc(C(F)(F)F)c2)cc1-c1cc(-c2ccnc(N)c2)n(C)c(=O)c1 [Example 53]	1000 to 10000 nM	500 to 1000 nM	100 to 500 nM	1000 to 10000 nM	1000 to 10000 nM				
